Measured values published in patent US11608337B2, “Heterocyclic compounds as immunomodulators” (Incyte Corporation, priority 2016, dated 2023).

Molecular target: PD-1/PD-L1 protein/protein interaction (Homo sapiens (Human), UniProt Q9NZQ7)
Assay: PD-1/PD-L1 Homogeneous Time-Resolved Fluorescence (HTRF) Binding Assay
Details: recombinant human PD-L1 (19-238) His-tag, human PD-1 (25-167) Fc tag; 25° C., PBS pH 7.4
Procedure: Example A. PD-1/PD-L1 Homogeneous Time-Resolved Fluorescence (HTRF) Binding Assay
The assays were conducted in a standard black 384-well polystyrene plate with a final volume of 20 μL. Inhibitors were first serially diluted in DMSO and then added to the plate wells before the addition of other reaction components. The final concentration of DMSO in the assay was 1%. The assays were carried out at 25° C. in the PBS buffer (pH 7.4) with 0.05% Tween-20 and 0.1% BSA. Recombinant human PD-L1 protein (19-238) with a His-tag at the C-terminus was purchased from AcroBiosystems (PD1-H5229). Recombinant human PD-1 protein (25-167) with Fc tag at the C-terminus was also purchased from AcroBiosystems (PD1-H5257). PD-L1 and PD-1 proteins were diluted in the assay buffer and 10 μL was added to the plate well. Plates were centrifuged and proteins were preincubated with inhibitors for 40 minutes. The incubation was followed by the addition of 10 μL of HTRF detection buffer supplemented with Europium cryptate-labeled anti-human IgG (PerkinElmer-AD0212) specific for Fc and anti-His antibody conjugated to SureLight®-Allophycocyanin (APC, PerkinElmer-AD0059H). After centrifugation, the plate was incubated at 25° C. for 60 min. before reading on a PHERAstar FS plate reader (665 nm/620 nm ratio). Final concentrations in the assay were […], 10 nM PD-L1, 1 nM europium anti-human IgG and 20 nM anti-His-Allophycocyanin. IC50 determination was performed by fitting the curve of percent control activity versus the log of the inhibitor concentration using the GraphPad Prism 5.0 software.
Data obtained for the Example compounds using the PD-1/PD-L homogenous time-resolved fluorescence (HTRF) binding assay described in Example A is provided in Table 1.

PD-1/PD-L1 protein/protein interaction, sequence (Q9NZQ7 19-238): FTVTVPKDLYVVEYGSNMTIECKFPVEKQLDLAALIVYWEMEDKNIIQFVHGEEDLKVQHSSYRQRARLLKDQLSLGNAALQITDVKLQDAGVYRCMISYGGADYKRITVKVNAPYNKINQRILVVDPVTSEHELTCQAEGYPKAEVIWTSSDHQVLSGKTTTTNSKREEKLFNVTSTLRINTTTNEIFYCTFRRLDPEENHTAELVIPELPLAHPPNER

SMILES	IC50
Cc1c(-c2cccc(OCCO)c2)cccc1-c1nc2c(s1)CNCC2 [Example 36, 2-{[2′-methyl-3′-(4,5,6,7-tetrahydro[1,3]thiazolo[5,4-c]pyridin-2-yl)biphenyl-3-yl]oxy}ethanol]	0.1 to 0.5 µM
Cc1c(-c2cccc(CC(N)=O)c2)cccc1-c1nc2c(s1)CNCC2 [Example 39, 2-[2′-methyl-3′-(4,5,6,7-tetrahydro[1,3]thiazolo[5,4-c]pyridin-2-yl)biphenyl-3-yl]acetamide]	≤ 0.1 µM
Cc1c(-c2ccc3c(c2)OCCO3)ccnc1-c1nc2c(s1)CNCC2 [Example 16, 2-[4-(2,3-dihydro-1,4-benzodioxin-6-yl)-3-methylpyridin-2-yl]-4,5,6,7-tetrahydro[1,3]thiazolo[5,4-c]pyridine]	≤ 0.1 µM

Second part, the molecule after the results:

IC50	SMILES
≤ 0.1 µM	Cc1c(-c2ccccc2)cccc1-c1nc2c(s1)CN(C[C@H](C)O)CC2 [Example 5, (2S)-1-[2-(2-methylbiphenyl-3-yl)-6,7-dihydro[1,3]thiazolo[5,4-c]pyridin-5(4H)-yl]propan-2-ol]
≤ 0.1 µM	Cc1c(-c2ccccc2)cccc1-c1nc2c(o1)CNCC2 [Example 22, 2-(2-methylbiphenyl-3-yl)-4,5,6,7-tetrahydro[1,3]oxazolo[5,4-c]pyridine]
≤ 0.1 µM	Cc1c(-c2ccccc2)cccc1-c1nc2c(o1)CCN(C)C2 [Example 24, 5-methyl-2-(2-methylbiphenyl-3-yl)-4,5,6,7-tetrahydro[1,3]oxazolo[4,5-c]pyridine]
0.5 to 10 µM	Cc1c(-c2ccccc2)cccc1-c1nc2c(s1)CNCC2(C)C [Example 19, 7,7-dimethyl-2-(2-methylbiphenyl-3-yl)-4,5,6,7-tetrahydro[1,3]thiazolo[5,4-c]pyridine]
